Data from US5703085A, “Xanthine derivatives” (Kyowa Hakko Kogyo Co., Ltd., priority 1994, dated 1997).
Where two headings read alike, the source gives them in different places.

Tests used:
A2 Receptor = target: T1, A2 Receptor (Rattus norvegicus, UniProt P30543); assay: Adenosine A2 receptor binding test (inhibition of 3H-CGS 21680 binding); conditions: rat corpus striatum, 3H-CGS 21680 4.0 nM
T1 construct: from tissue; host or cells: rat corpus striatum (membrane suspension)
Procedure: Adenosine Receptor Antagonistic Activity (Adenosine A2 Receptor Binding Test)
The test was conducted according to the method of Bruns et al. [Mol. Pharmacol., 29, 331 (1986)] with slight modification.
Corpus striatum of a rat was suspended in ice-cooled 50 mM Tris (hydroxymethyl) aminomethane hydrochloride (Tris HCl) buffer (pH 7.7) by using Polytron homogenizer (manufactured by Kinematica Co.). The suspension was centrifuged (50,000×g, 10 minutes), and the precipitate was suspended again in the same amount of 50 mM Tris HCl buffer. The suspension was centrifuged under the same conditions, and the final precipitate was suspended in 50 mM Tris HCl buffer [containing 10 mM magnesium chloride and 0.02 unit/mg tissue of adenosine deaminase (manufactured by Sigma Co.)] to give a tissue concentration of 5 mg (wet weight)/ml.
To 1 ml of the tissue suspension thus prepared were added 50 μl of tritium labeled CGS 21680 {^3 H-2-[p-(2-carboxyethyl) phenethylamino]-5'-(N-ethylcarboxamide)-adenosine: 40 Ci/mmol; manufactured by New England Nuclear Co. [J. Pharmacol. Exp. Ther., 251, 888 (1989)]} (final concentration: 4.0 nM) and 50 μl of a test compound. The resulting mixture was allowed to stand at 25° C. for 120 minutes and then rapidly filtered by suction through a glass fiber filter (GF/C; manufactured by Whatman Co.). The filter was immediately washed three times with 5 ml each of ice-cooled 50 mM Tris HCl buffer, and transferred to a vial, and a scintillator (EX-H; manufactured by Wako Pure Chemical Industries, Ltd.) was added thereto. The radioactivity on the filter was determined with a liquid scintillation counter (manufactured by Packard Instrument Co.).
The inhibition rate of the test compound against the binding of A2 receptors (^3 H-CGS 21680 binding) was calculated by the following equation: [formula] [Notes]B: Amount of the binding in the presence of the test compound.
T: Amount of the total binding.
N: Amount of the nonspecific binding.
Amount of the total binding means the amount of radioactivity of ^3 H-CGS 21680 bound in the absence of the test compound. Amount of the nonspecific binding means the amount of radioactivity of ^3 H-CGS 21680 bound in the presence of 100 μM cyclopentyladenosine (CPA; manufactured by Sigma Co.). Amount of the binding in the presence of the test compound means the amount of radioactivity of ^3 H-CGS 21680 bound in the presence of the test compound at various levels of concentrations.

[1] = Effect on haloperidol-induced catalepsy; assay type: in vivo, male ddY mice; conditions: 10 mg/kg po; for Total Score (catalepsy): 1 h after compound; for inhibition in vivo at 10 mg/kg: Mus musculus, 1 h, decrease in total score vs control group, read-out: Remission Rate (%)
Procedure: Effect on Haloperidol-Induced Catalepsy
Parkinson's disease is a clinical syndrome caused by degeneration and cell death of nigrostriatal dopaminergic neurons. Administration of haloperidol (dopamine D1 /D2 antagonist) induces catalepsy resulting from the blockade of postsynaptic dopamine D2 receptors.
The experiment was carried out using several groups of 5-week-old male ddY mice (weighing 22 to 24 g, Japan SLC), each group consisting of 5 or 10 mice. Haloperidol (manufactured by Janssen Pharmaceutica) was suspended in 0.3% CMC and imtraperitoneally administered to each mouse at a dose of 1.0 mg/kg. A test compound was suspended in injectable distilled water (manufactured by Otsuka Pharmaceutical Co., Ltd.) after adding Tween 80 [polyoxyethylene (20) sorbitan monooleate]. L-DOPA (manufactured by Kyowa Hakko Kogyo Co., Ltd.) and benserazide hydrochloride (manufactured by Kyowa Hakko Kogyo Co., Ltd.) were suspended in 0.3% CMC. One hour after the intraperitoneal administration of haloperidol, the suspension containing the test compound or the suspension containing no test compound [injectable distilled water (manufactured by Otsuka Pharmaceutical Co., Ltd.) containing Tween 80; control] were orally administered to the separate groups of the mice (0.1 ml per 10 g of body weight). One hour after the administration of the test compound, the forelimbs of each mouse and subsequently the hindlimbs of the same mouse were placed on a 4.5 cm-high, 1.0 cm-wide bar and catalepsy was estimated. All of the test compounds were orally administered at a dose of 10 mg/kg, and L-DOPA (100 mg/kg) and benserazide (25 mg/kg) were intraperitoneally administered together as a control. The catalepsy score and the standard of judgment are shown below. […]
Score Duration of the category
0: forelimbs less than 5 seconds
hindlimbs less than 5 seconds
1: forelimbs from 5 (inclusive)
to 10 (exclusive) seconds
2: forelimbs 10 seconds or more
3: (1) forelimbs from 5 (inclusive)
hindlimbs from 5 (inclusive)
or (2) forelimbs less than 5 seconds
hindlimbs 5 seconds or more
4: (1) forelimbs 10 seconds or more
or (2) forelimbs from 5 (inclusive)
hindlimbs 10 seconds or more
5: forelimbs 10 seconds or more
The effect of the compounds was evaluated by the total of the catalepsy scores of 5 or 10 mice in each group (25 or 50 points at the maximum). The groups wherein the total score was not more than 20 or 40 points were estimated to be effective. The number of the animals showing remission against catalepsy is the number of the mice for which the catalepsy score was not more than 4 points in 5 or 10 mice.

[2] = Effect on clonidine-induced aggressive behavior; assay type: in vivo, male ddY mice; conditions: po, clonidine 20 mg/kg ip; for Number of the Biting Attacks (mean ± S.E.M.), Test Compound-Treated Group: 30 min count
Procedure: Effect on Clonidine-Induced Aggressive Behavior
The enhancement effect of the test compounds on the aggressive behavior induced by intraperitoneal administration of clonidine [Eur. J. Pharmacol., 29, 374 (1968)] was investigated.
The experiment was performed using several groups of male ddY mice weighing 20 to 25 g (Japan SLC), each group consisting of two mice. A test compound was suspended in injectable distilled water (manufactured by Otsuka Pharmaceutical Co., Ltd.) after adding Tween 80. Clonidine hydrochloride (manufactured by Sigma Co.) was dissolved in physiological saline solution (manufactured by Otsuka Pharmaceutical Co., Ltd.). The suspension containing the test compound and the suspension containing no test compound (control) were orally administered to the separate groups of the mice (0.1 ml per 10 g of body weight). Sixty minutes after the oral administration of the test compound, clonidine hydrochloride (20 mg/kg) was intraperitoneally administered. The number of biting attacks during the 30 minutes immediately after the clonidine treatment was counted. The effect of the compounds was evaluated by comparing the number of biting attacks of the test compound-administered groups with that of control groups (significance test: Student' t-test).

[3] = 5 mice (max 25 points; control 25)
[4] = out of 5 mice (score not more than 4)
[5] = out of 10 mice (score not more than 4)

T1 sequence (P30543 whole entry): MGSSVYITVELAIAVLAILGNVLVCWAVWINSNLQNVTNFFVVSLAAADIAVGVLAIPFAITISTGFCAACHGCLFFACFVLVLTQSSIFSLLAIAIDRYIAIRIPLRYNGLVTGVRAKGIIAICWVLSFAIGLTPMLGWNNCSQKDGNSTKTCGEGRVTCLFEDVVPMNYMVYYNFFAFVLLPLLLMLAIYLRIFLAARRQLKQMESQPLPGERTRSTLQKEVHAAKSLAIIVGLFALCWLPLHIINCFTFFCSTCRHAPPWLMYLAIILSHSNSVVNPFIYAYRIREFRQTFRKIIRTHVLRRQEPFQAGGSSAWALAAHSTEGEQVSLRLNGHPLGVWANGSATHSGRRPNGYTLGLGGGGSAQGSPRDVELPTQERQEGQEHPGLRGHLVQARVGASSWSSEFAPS

| SMILES | A2 Receptor Inhibition Rate (%) (A2 Receptor; 10^-6 M) | A2 Receptor Inhibition Rate (%) (A2 Receptor; 10^-7 M) | Total Score (catalepsy) [1, 3] | Number of Animals Showing Remission [1, 4] | inhibition in vivo at 10 mg/kg ([1]; 5 mice) | Ratio of Attacks: Test Compd.-Treated Group/Control Group ([2]; 0.63 mg/kg) | Number of the Biting Attacks (mean ± S.E.M.), Test Compound-Treated Group ([2]; 0.63 mg/kg) | Ratio of Attacks: Test Compd.-Treated Group/Control Group ([2]; 10 mg/kg) | Number of the Biting Attacks (mean ± S.E.M.), Test Compound-Treated Group ([2]; 10 mg/kg) | Total Score (catalepsy) ([1]; 10 mice (max 50 points)) | Number of Animals Showing Remission [1, 5] | inhibition in vivo at 10 mg/kg ([1]; 10 mice) | Ratio of Attacks: Test Compd.-Treated Group/Control Group ([2]; 2.5 mg/kg) | Number of the Biting Attacks (mean ± S.E.M.), Test Compound-Treated Group ([2]; 2.5 mg/kg) |
| --- | --- | --- | --- | --- | --- | --- | --- | --- | --- | --- | --- | --- | --- | --- |
| CCn1c(=O)c2c(nc(/C=C/c3ccc(OC(C)=O)c(OC)c3)n2C)n(CC)c1=O [Compound 5, (E)-8-(4-Acetoxy-3-methoxystyryl)-1,3-diethyl-7-methylxanthine] | 100% | 91% | 2 | 5 | 92% | 4.9 | 19.1 ± 6.6 |  |  |  |  |  |  |  |
| CCCn1c(=O)c2c(nc(/C=C/c3ccc(OC(=O)c4ccccc4)c(OC)c3)n2C)n(CCC)c1=O [Compound 6, (E)-8-(4-Benzoyloxy-3-methoxystyryl)-7-methyl-1,3-dipropylxanthine] | 96% | 81% | 9 | 5 | 64% |  |  | 16.0 | 36.8 ± 10.8 |  |  |  |  |  |
| CCC(=O)Oc1ccc(/C=C/c2nc3c(c(=O)n(CC)c(=O)n3CC)n2C)cc1OC [Compound 12, (E)-1,3-Diethyl-8-(3-methoxy-4-propionyloxystyryl)-7-methylxanthine] | 96% | 86% |  |  |  |  |  |  |  | 10 | 10 | 80% | 20.3 | 38.5 ± 8.4 |
| CCn1c(=O)c2c(nc(/C=C/c3ccc(OC(C)=O)cc3)n2C)n(CC)c1=O [Compound 14, (E)-8-(4-Acetoxystyryl)-1,3-diethyl-7-methylxanthine] | 93% | 86% |  |  |  | 4.1 | 21.4 ± 7.4 |  |  | 11 | 10 | 78% |  |  |
